Laboratory results: patent US12427189B2, “Vaccine comprising epitope of heat shock protein, and use thereof” (ASTON SCI. CO., LTD., priority 2018, dated 2025)

Legend:
[1] = system: mouse mammary carcinoma (MMC) cells; assay: Survival analysis of HSP90 peptides and STING agonist in MMC tumor-bearing mice; assay type: in vivo, neu-transgenic mice; details: monitored until 90 days after tumor implantation; tumor >2,000 mm^3 considered dead
Description: (§1) To evaluate effects of the combination therapeutic with HSP90 peptides and STING agonist (tlrl-dmx, InvivoGen, CA, USA), MMC cells (5×10^5) were implanted with s.c in neu-transgenic mice. […] Three immunizations were given 10 days apart. 15 days after the third vaccination, spleen, tumor and serum was harvested in mice. To evaluate survival analysis of the combination effects with HSP90 peptides and STING agonist, mice were monitored two time per week until 90 days following tumor implantation and when tumor reached a size greater than 2,000 mm^3, mice were considered dead.

[2] = system: mouse mammary carcinoma (MMC) cells; assay: Combination of HSP90 peptides and STING agonist in MMC tumor-bearing mice; assay type: in vivo, neu-transgenic mice
Description: as §1
The levels of HSP90 and HER2 ECD were evaluated by ELISA in the serum of HER2 positive breast cancer patients and mice. Briefly, HSP90 (ADI-SPP-776, Enzo Life Science, NY, USA) and HER2 ECD (YCP5341, Speed Biosystems) recombinant proteins were coated a 96-well microplate with 50 μL per well of the diluted concentration of 20 μg/mL in carbonate buffer. Standard was coated with IgG dilution of human and mouse to serial concentration (0.64˜0.005 μg/mL). […] Samples (200 μL) were added to the wells and incubated overnight at 4° C. […] The optical density of each well at 450 nm was determined using an IMARKTM™ microplate reader (Bio-Rad Laboratories, Hercules, CA, USA). […]

LR-MMC cells [3] = assay: Lapatinib treatment of LR-MMC tumor-bearing mice; assay type: in vivo, neu-transgenic mice; details: lapatinib 75 mg/kg oral gavage 5 times weekly
Protocol: (§2) To establishment lapatinib-resistant mouse model, MMC and lapatinib-resistant MMC cells (1×106) were injected flank with s.c in neu-transgenic mice.

LR-MMC cells [4] = details: per 10 high-power field, IHC
MMC cells [5] = assay: Lapatinib treatment of MMC tumor-bearing mice; assay type: in vivo, neu-transgenic mice; details: day 34, lapatinib 75 mg/kg oral gavage 5 times weekly
Protocol: as §2

MMC cells [6] = assay: Cell viability MTT assay, MMC cells; assay type: cell-based, mouse
Description: (§3) Neu-transgenic mice [strain: FVB/N-Tg(MMTVneu)202Mul] were obtained from the Jackson Laboratory (Bar Harbor, ME). These mice harbor non-mutated, non-activated rat neu under the control of the mouse mammary tumor virus (MMTV) promoter/enhancer. The neu transgene is expressed at low levels in normal mammary epithelium, salivary gland, and lung. Until the age of eight month, 35% of female neu-transgenic mice spontaneously develop mammary carcinomas that display high neu-expression levels. Mouse mammary carcinoma (MMC) cell line was established from a spontaneous tumor in neu-transgenic mouse. MMC cells were maintained in RPMI-1640 medium (ThermoFisher scientific, Utah, USA) supplemented with 10% fetal bovine serum, 100 units/ml penicillin, […] streptomycin and 2 mM L-glutamine, and were incubated in a humidified 37° C. incubator with 5% CO2. Lapatinib was purchased from LC laboratories (L-4899, MA, USA). […]
(§4) Cells were seeded at a density of 1×10^5 cells in 6-well plates. […] Cell viability was quantitatively analysed using the 3-[4,5-dimethylthiazol-2-yl]-2,5-diphenyltetrazolium (MTT) assay. […] The absorbance of the converted MTT dye was measured at 540 nm using an IMARK™ microplate reader (Bio-Rad Laboratories). Cell viability was expressed as the relative percentage compared to untreated cells; experimental error was also calculated. […] The percent of cell survival was calculated using […] […]

LR-MMC cells [7] = assay: Cell viability MTT assay, lapatinib-resistant MMC cells; assay type: cell-based, mouse
Description: as §3, §4

human PBMCs = assay: IFN-γ and IL-10 ELISPOT screen of HSP90 peptides in human PBMCs; assay type: cell-based; details: human PBMCs from 10 volunteer donors
Protocol: Serum samples were obtained after written consent, from 25 HER2 positive breast cancer patient, and 25 volunteer donors at the Korea University Anam Hospital (Approval number: 2016AN0090). All sera were aliquoted and stored at −80° C. For human T cell response studies, peripheral blood mononuclear cells (PBMC) were obtained after informed consent, from 10 breast cancer patients, and 10 volunteer donors. Cells were ficolled and cryopreserved as previously described (Guy C T, et al. (1992) Expression of the neu protooncogene in the mammary epithelium of transgenic mice induces metastatic disease. Proceedings of the National Academy of Sciences of the United States of America 89(22):10578-10582). PBMC samples were obtained at the General Clinical Research Center Facility at the University of Washington (Approval number: NIH MO1-RR-00037)
(§5) Color development was stopped by washing under tap water.
This study profiled the peptide sequences with the highest recognition of HSP90 peptide and MHC class II peptide binding by a scoring system combining multiple MHC class II peptide binding algorithms. FIG. 2 depicts the entire HSP90 peptide sequence and identified immunogenic “hotspots”. Among them, 11 peptides with the highest scores in the binding affinity scoring system were selected. The selected 11 15-mer HSP90 peptides (Table 2) were screened for T helper (Th)1 or Th2 immunity in human PBMCs from 10 volunteer donors by IFN-γ ELISPOT assay using as a representative Th1 cytokine, IFN-γ, and a Th2 cytokine, Interleukine-10 (IL-10).

Splenocytes = assay: Immunogenicity of HSP90 peptides in immunized FVB mice, IFN-γ ELISPOT of splenocytes; assay type: in vivo; details: mice immunized s.c. 100 μg single peptide in CFA/IFA, 3 times; compared with control
Protocol: To test immunogenicity of the selected peptides in murine model, six to eight-week-old female FVB mice were obtained from Koatech (Gyeonggi, Korea). The mice were immunized subcutaneous (s.c) injection with 100 μg of respective HSP90 peptides of SEQ ID NOs: 1, 2, and 5-14 or Phosphate Buffered Saline (PBS) as a mixture in complete Freund's adjuvant (CFA; F5881, Sigma, MO, USA)/incomplete Freund's adjuvant (IFA; F5506, Sigma). Three immunizations were given 10 days apart. Ten days after the third vaccination, spleen and serum was harvested from each mouse.
as §5

| Molecule | Th1 and Th2 immune responses (IFN-γ and IL-10 ELISPOT) (human PBMCs) | antigen-specific T cell response (IFN-γ ELISPOT) (Splenocytes) | also measured |
| --- | --- | --- | --- |
| Cc1ccc2c(=O)c3cccc(CC(=O)O)c3oc2c1C [STING agonist] |  |  | median survival [1]: 79 days; mean tumor volume (mean±SD) ([2]; day 35, treatment from tumor >100 mm^3, 3 times): 647±66 mm^3; expression levels of mouse HER2 ECD (ELISA) ([2]; serum): 89 µg/mL |
| CS(=O)(=O)CCNCc1ccc(-c2ccc3ncnc(Nc4ccc(OCc5cccc(F)c5)c(Cl)c4)c3c2)o1 [lapatinib] |  |  | mean tumor volume (mean±SD) (LR-MMC cells [3]): 1212±523 mm^3; infiltrated CD8+ T cells in tumor (Mean median) (LR-MMC cells [4]): 6.6 counts; mean tumor volume (mean±SD) (MMC cells [5]): 1711±397 mm^3; sensitivity after lapatinib treatment (MMC cells [6]; MMC cells): sensitive in a dose-dependent manner; IC50 (MMC cells [6]; Mus musculus, parent MMC cells): 76 nM; apoptosis (LR-MMC cells [7]; LR-MMC cells compared with MMC cells): did not induce significant apoptosis; IC50 (LR-MMC cells [7]; Mus musculus, LR-MMC cells): 390 nM |
| IVKKHSQFIGYPITL (HSP90 p328-342) [HSP90 15-mer peptide] | strong Th1 and Th2 immune responses |  |  |
| LEFRALLFVPRRAPF (HSP90 p457-471) [HSP90 15-mer peptide] | weak Th1 and Th2 immune responses | significantly higher |  |
| LYKDLQPFILLRLLM (HSP90 p109-123) [HSP90 15-mer peptide] | strong Th1 and Th2 immune responses |  |  |
| LYVRRVFIMDNCEEL (HSP90 p485-499) [HSP90 15-mer peptide] | predominantly Th1 immune responses | significantly higher |  |
| QFGVGFYSAYLVAEK (HSP90 p255-269) [HSP90 15-mer peptide] | weak Th1 and Th2 immune responses |  |  |
| QSKILKVIRKNLVKK (HSP90 p527-541) [HSP90 15-mer peptide] | predominantly Th1 immune responses | significantly higher |  |
| SELLRYYTSASGDEM (HSP90 p582-596) [HSP90 15-mer peptide] | weak Th1 and Th2 immune responses |  |  |
| SVKDLVILLYETALL (HSP90 p780-794) [HSP90 15-mer peptide] | weak Th1 and Th2 immune responses |  |  |
| TDTGEPMGRGTKVIL (HSP90 p296-310) [HSP90 15-mer peptide] | weak Th1 and Th2 immune responses |  |  |
| YSNKEIFLRELISNS (HSP90 p160-174) [HSP90 15-mer peptide] | weak Th1 and Th2 immune responses | significantly higher |  |
